In paper PMC3189771, “Structure–Activity Relationship of Halophenols as a New Class of Protein Tyrosine Kinase Inhibitors” (International Journal of Molecular Sciences, 2011):
pIC50: −log10 of the molar value.

Assays:
[1] = molecular target: protein tyrosine kinase (PTK); experiment: in vitro PTK inhibitory activity by ELISA (brain cytoplasmic tyrosine kinase extract, PGT substrate); type: biochemical, mouse; conditions: genistein as positive control; for pIC50: determined in triplicate
Procedure: After removal of the male mouse (SD) meninges, the brain was weighted and homogenized with a glass homogenizer in four volumes of cold medium (containing 20 mmol/L Tris–HCl, pH 7.5, 0.25 mol/L sucrose, 2 mmol/L DDT, 2 mmol/L EDTA, 2 mmol/L Na3VO4, 1 mmol/L DMSF, 215 mg/L aprotinin, 1 mg/L PTIFtatin, 5 mg/L leupeptin) at high speed. The mixture was centrifuged for 10 min at 1000 × g at 4 °C; the supernatant was collected and re-centrifuged for 10 min at 10,000 × g at 4 °C to obtain the target supernatant. The target supernatant that contained cytoplasmic tyrosine kinase was collected, separately packed and stored at −70 °C.
PTK activity was determined by the ELISA method. In brief, the concentrations of PTKs used to construct calibration curves were as follows: 600, 500, 341, 200 and 100 × 10^−7 U/mL for PTK. 100 μL of 20 mg/L PGT (Sigma Aldrich) in 20 mmol/L PBS solution was added to 96-well microtiter plates at 37 °C overnight. After removing excess substrate solution, PBS–Tween 20 (PBST) was used to wash the wells one time, which were dried for 2 h at 37 °C and kept at 4 °C. Subsequently, 50 μL of the above PTK extraction (50 mmol/L HEPES, pH 7.4, 20 mmol/L MgCl2, 0.1 mmol/L MnCl2, 0.2 mmol/L Na3VO4, 0.6 mmol/L ATP) was added to the 96-well plates. Then, a certain concentration of the tested compounds (10 μL) and tyrosine kinase tissue extract solution were incubated at 37 °C for 1 h. The plate was washed three times with PBST at the end of the treatment, and 100 μL of the diluted horseradish-peroxidase-labeled mouse anti-phosphotyrosine monoclonal antibody IgG2bk (Sigma Aldrich) was added to each well, and incubated at 37 °C for 30 min. After removal of the antibody complex, and then washing three times with PBST, 100 μL freshly prepared TMB horseradish peroxidase color development solution (Beijing 4A Biotech Co., Ltd, China) was added and protected from light for 10 min. The reaction was terminated by addition of 100 μL/well 1 N sulfuric acid. Absorbance was measured at 450 nm in a microplate reader (SpectraMax M5).

Compound | melting point | pIC50 [1] | PTK inhibitory activity (in words) [1]
Oc1ccc(Cc2ccccc2F)cc1O [Compound 1d, 2-fluoro-3′,4′-dihydroxyl diphenylmethane] | 91 to 92 °C | < 4.30 | 
COc1ccc(C(=O)c2cccc(F)c2)cc1OC [Compound 2a, 3-fluoro-3′,4′-dimethoxyl benzophenone] | 103 to 105 °C |  | 
O=C(c1cccc(F)c1)c1ccc(O)c(O)c1 [Compound 2c, 3-fluoro-3′,4′-dihydroxyl benzophenone] | 104 to 106 °C | < 4.30 | 
COc1ccc(C(=O)c2ccc(F)cc2)cc1OC [Compound 3a, 4-fluoro-3′,4′-dimethoxyl benzophenone] | 101 to 103 °C |  | 
Oc1ccc(Cc2ccc(F)cc2)cc1O [Compound 3d, 4-fluoro-3′,4′-dihydroxyl diphenylmethane] | 59 to 61 °C | < 4.30 | 
O=C(c1ccc(O)c(O)c1)c1ccccc1I [Compound 4c, 2-iodo-3′,4′-dihydroxyl benzophenone] | 186 to 188 °C | < 4.30 | 
Oc1ccc(Cc2ccccc2I)cc1O [Compound 4d, 2-iodo-3′,4′-dihydroxyl diphenylmethane] | 130 to 132 °C | < 4.30 | 
O=C(c1ccc(O)c(O)c1)c1c(Br)c(O)c(O)c(O)c1Br [Compound 5c] |  | < 4.30 | no activity
Oc1ccc(Cc2c(Br)c(O)c(O)c(O)c2Br)cc1O [Compound 5d] |  | < 4.30 | no activity
O=C(c1ccc(O)c(O)c1)c1c(Cl)c(O)c(O)c(O)c1Cl [Compound 6c] |  | 5.53 | stronger activities than that of genistein
Oc1ccc(Cc2c(Cl)c(O)c(O)c(O)c2Cl)cc1O [Compound 6d] |  | 5.40 | stronger activities than that of genistein
O=C(c1ccc(O)c(Br)c1)c1cc(O)c(O)cc1Br [Compound 7c] |  | < 4.30 | no activity
Oc1cc(Br)c(Cc2ccc(O)c(Br)c2)cc1O [Compound 7d] |  | 5.20 | stronger activities than that of genistein
O=C(c1ccc(O)c(O)c1)c1ccccc1Cl [Compound 8c] |  | 4.75 | 
Oc1ccc(Cc2ccccc2Cl)cc1O [Compound 8d] |  | 4.83 | 
Oc1ccc(Cc2cccc(Cl)c2)cc1O [Compound 9d] |  | 4.89 | stronger activities than that of genistein
Oc1ccc(Cc2ccc(Cl)cc2)cc1O [Compound 10d] |  | 5.16 | stronger activities than that of genistein
O=C(c1ccccc1)c1cc(O)c(O)cc1Br [Compound 11c] |  | 4.80 | 
Oc1cc(Br)c(Cc2ccccc2)cc1O [Compound 11d] |  | 5.20 | stronger activities than that of genistein
Oc1cc(Cc2ccccc2)c(Br)c(Br)c1O [Compound 12d] |  | < 4.30 | 
Oc1cc(Br)c(Cc2cc(Br)ccc2O)cc1O [Compound 13d] |  | 5.30 | stronger activities than that of genistein

Now from value to molecule, other results behind:

melting point | pIC50 [1] | Compound | PTK inhibitory activity (in words) [1]
77 to 79 °C |  | COc1ccc(C(=O)c2ccccc2F)cc1OC [Compound 1a, 2-fluoro-3′,4′-dimethoxyl benzophenone] | 
149 to 150 °C | < 4.30 | O=C(c1ccc(O)c(O)c1)c1ccccc1F [Compound 1c, 2-fluoro-3′,4′-dihydroxyl benzophenone] | 
66 to 68 °C | < 4.30 | Oc1ccc(Cc2cccc(F)c2)cc1O [Compound 2d, 3-fluoro-3′,4′-dihydroxyl diphenylmethane] | 
155 to 157 °C | < 4.30 | O=C(c1ccc(F)cc1)c1ccc(O)c(O)c1 [Compound 3c, 4-fluoro-3′,4′-dihydroxyl benzophenone] | 
143 to 145 °C |  | COc1ccc(C(=O)c2ccccc2I)cc1OC [Compound 4a, 2-iodo-3′,4′-dimethoxyl benzophenone] | 
 | 4.75 | O=C(c1cccc(Cl)c1)c1ccc(O)c(O)c1 [Compound 9c] | 
 | 4.38 | O=C(c1ccc(Cl)cc1)c1ccc(O)c(O)c1 [Compound 10c] | 
 | < 4.30 | O=C(c1ccccc1)c1cc(O)c(O)c(Br)c1Br [Compound 12c] | 
 | < 4.30 | O=C(c1cc(Br)ccc1O)c1cc(O)c(O)cc1Br [Compound 13c] | no activity
 | 4.87 | O=c1c(-c2ccc(O)cc2)coc2cc(O)cc(O)c12 [Genistein, genistein, reference compound] | 
